Results as given in ChEMBL document CHEMBL4359887, “Hitting on the move: Targeting intrinsically disordered protein states of the MDM2-p53 interaction” (Eur J Med Chem, 2019).
pEC50: −log10 of the molar value.

How the values were obtained:
Protein Mdm4 = target: T1, Protein Mdm4 (Homo sapiens, UniProt O15151)
T1 sequence (O15151 whole entry): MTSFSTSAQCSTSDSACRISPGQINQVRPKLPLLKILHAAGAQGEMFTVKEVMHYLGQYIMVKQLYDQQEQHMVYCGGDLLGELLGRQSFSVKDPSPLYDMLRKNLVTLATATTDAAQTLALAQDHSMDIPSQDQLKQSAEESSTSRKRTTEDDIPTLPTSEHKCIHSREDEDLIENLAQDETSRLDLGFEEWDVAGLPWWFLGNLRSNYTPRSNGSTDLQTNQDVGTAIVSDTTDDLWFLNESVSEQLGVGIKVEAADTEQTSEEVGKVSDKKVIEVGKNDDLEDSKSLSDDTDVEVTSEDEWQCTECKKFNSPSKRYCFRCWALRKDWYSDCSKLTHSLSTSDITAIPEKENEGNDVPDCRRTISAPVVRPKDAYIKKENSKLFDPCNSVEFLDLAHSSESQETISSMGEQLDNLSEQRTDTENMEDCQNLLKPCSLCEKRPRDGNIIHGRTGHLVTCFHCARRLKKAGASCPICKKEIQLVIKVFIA

[1] = target: E3 ubiquitin-protein ligase Mdm2 (Homo sapiens, UniProt Q00987)
HCT-116 [2] = test: Induction of apoptosis in human HCT116 cells expressing wild type p53 assessed as early apoptotic cells expressing wild type p53 at 20 uM measured after 72 hrs by annexin V-FITC/propidium iodide staining-based flow cytometry analysis (reference value: 8.8 %); type: functional
HCT-116 [3] = test: Induction of apoptosis in human HCT116 cells expressing wild type p53 assessed as live cells at 20 uM measured after 72 hrs by annexin V-FITC/propidium iodide staining-based flow cytometry analysis (reference value: 83.7 %); type: functional
HCT-116 [4] = test: Induction of apoptosis in human HCT116 cells expressing wild type p53 assessed as necrotic cells at 20 uM measured after 72 hrs by annexin V-FITC/propidium iodide staining-based flow cytometry analysis (reference value: 0.7 %); type: functional
HCT-116 [5] = test: Induction of apoptosis in human HCT116 cells assessed as late apoptotic cells expressing wild type p53 at 20 uM measured after 72 hrs by annexin V-FITC/propidium iodide staining-based flow cytometry analysis (reference value: 6.8 %); type: functional
U2OS = test: Anticancer activity against human U2OS cells expressing wild-type p53 assessed as inhibition of cell viability measured after 5 days by MTT assay; conditions: 120 h
SAOS-2 = test: Anticancer activity against p53-deleted human Saos2 cells assessed as inhibition of cell viability measured after 5 days by MTT assay; conditions: SAOS-2, 120 h

E3 ubiquitin-protein ligase Mdm2, sequence (Q00987 whole entry): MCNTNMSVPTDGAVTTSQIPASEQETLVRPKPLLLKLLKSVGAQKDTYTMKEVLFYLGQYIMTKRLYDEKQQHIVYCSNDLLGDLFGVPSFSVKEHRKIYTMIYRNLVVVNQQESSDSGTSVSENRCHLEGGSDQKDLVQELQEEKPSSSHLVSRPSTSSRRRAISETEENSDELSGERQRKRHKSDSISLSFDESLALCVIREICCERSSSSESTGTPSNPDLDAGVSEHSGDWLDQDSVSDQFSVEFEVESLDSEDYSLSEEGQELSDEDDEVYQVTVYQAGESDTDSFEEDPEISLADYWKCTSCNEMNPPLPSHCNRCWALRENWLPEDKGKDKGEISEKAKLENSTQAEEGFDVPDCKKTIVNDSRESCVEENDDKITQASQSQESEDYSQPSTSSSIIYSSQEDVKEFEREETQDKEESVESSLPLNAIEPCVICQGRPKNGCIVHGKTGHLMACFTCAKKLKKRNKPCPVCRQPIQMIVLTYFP

| Structure (SMILES) | Ki (Protein Mdm4) | Activity (HCT-116 [2]) | Activity (HCT-116 [3]) | Activity (HCT-116 [4]) | Activity (HCT-116 [5]) | further results |
| --- | --- | --- | --- | --- | --- | --- |
| CC(C)(C)NC(=O)C(NCc1ccc(OCc2ccccc2Br)cc1)c1c(C(=O)O)[nH]c2cc(Cl)ccc12 (stereo not given) | Not Active | – | – | – | – | – |
| O=CN(Cc1ccc(OCc2ccc(Br)cc2)cc1)C(C(=O)NC12CC3CC(CC(C3)C1)C2)c1c(C(=O)O)[nH]c2cc(Cl)ccc12 (stereo not given) | Not Active | – | – | – | – | – |
| CC(C)(C)NC(=O)C(c1c(C(=O)O)[nH]c2cc(Cl)ccc12)N(C=O)Cc1ccc(OCc2ccc([N+](=O)[O-])cc2)cc1 (stereo not given) | Not Active | – | – | – | – | Ki [1]: Not Active |
| CCOC(=O)c1[nH]c2cc(Cl)ccc2c1C(C(=O)NC(C)(C)C)N(C=O)Cc1ccc(OCc2ccc(C)cc2)cc1 (stereo not given) | – | 37.3% | 13% | 0.9% | 48.8% | – |
| Cc1ccc(COc2ccc(CN(C=O)C(C(=O)NC(C)(C)C)c3c(C(=O)O)[nH]c4cc(Cl)ccc34)cc2)cc1 (stereo not given) | – | 10.3% | 76.2% | 4.7% | 8.7% | – |
| CCOC(=O)c1[nH]c2cc(Cl)ccc2c1C(C(=O)NC(C)(C)C)N(C=O)Cc1ccc(OCc2ccccc2I)cc1 (stereo not given) | – | 6.3% | 86.3% | 1.3% | 6.2% | – |
| CC(C)(C)NC(=O)C(c1c(C(=O)O)[nH]c2cc(Cl)ccc12)N(C=O)Cc1ccc(OCc2ccncc2)cc1 (stereo not given) | Not Active | – | – | – | – | – |
| CC(C)(C)NC(=O)C(c1c(C(=O)O)[nH]c2cc(Cl)ccc12)N(C=O)Cc1cc(F)c(OCc2ccccc2)c(F)c1 (stereo not given) | Not Active | – | – | – | – | – |
| CC(C)(C)NC(=O)C(c1c(C(=O)O)[nH]c2cc(Cl)ccc12)N(C=O)CCc1ccc(OCc2ccc(Br)cc2)cc1 (stereo not given) | Not Active | – | – | – | – | – |
| CC(C)(C)NC(=O)C(c1c(C(=O)O)[nH]c2cc(Cl)ccc12)N(C=O)Cc1ccc(OCc2c(Cl)cccc2Cl)cc1 (stereo not given) | Not Active | – | – | – | – | – |
| CC(C)(C)NC(=O)C(c1c(C(=O)O)[nH]c2cc(Cl)ccc12)N(C=O)Cc1ccc(OCc2ccccc2I)cc1 (stereo not given) | – | 7.1% | 84.4% | 1.3% | 6.9% | – |
| COc1cccc(COc2ccc(CN(C=O)C(C(=O)NC(C)(C)C)c3c(C(=O)O)[nH]c4cc(Cl)ccc34)cc2)c1 (stereo not given) | – | 13.5% | 76.8% | 0.8% | 8.9% | – |
| CC(C)(C)NC(=O)C(c1ccc(Cl)cc1)N(C=O)Cc1ccc(OCc2ccc(Cl)c(Cl)c2)cc1 (stereo not given) | Not Active | – | – | – | – | Ki [1]: Not Active |
| CC(C)(C)NC(=O)C(c1c(C(=O)O)[nH]c2cc(Cl)ccc12)N(C=O)CCCN1CCOCC1 (stereo not given) | Not Active | – | – | – | – | – |
| CN(Cc1ccc(OCc2ccccc2Br)cc1)C(C(=O)NC(C)(C)C)c1c(C(=O)O)[nH]c2cc(Cl)ccc12 (stereo not given) | Not Active | – | – | – | – | Ki [1]: Not Active |
| CCOC(=O)c1[nH]c2cc(Cl)ccc2c1C(C(=O)NC(C)(C)C)N(C=O)Cc1ccc(OCc2ccc(Cl)c(Cl)c2)cc1 (stereo not given) | – | 27.1% | 30% | 0.4% | 42.4% | – |
| CC(C)(C)NC(=O)C(c1cccc(Cl)c1)N(C=O)Cc1ccc(Cl)cc1 (stereo not given) | Not Active | – | – | – | – | Ki [1]: Not Active |
| O=CN(CCc1ccccc1)C(C(=O)NCCc1ccccc1)c1c(C(=O)O)[nH]c2cc(Cl)ccc12 (stereo not given) | Not Active | – | – | – | – | – |
| CC(C)(C)NC(=O)C(c1c(C(=O)O)[nH]c2cc(Cl)ccc12)N(C=O)Cc1ccc(OCc2ccsc2)cc1 (stereo not given) | Not Active | – | – | – | – | Ki [1]: Not Active |
| CCOC(=O)c1[nH]c2cc(Cl)ccc2c1C(C(=O)NC(C)(C)C)N(C=O)Cc1ccc(OCCc2ccccc2)cc1 (stereo not given) | – | 46.6% | 12.6% | 0.7% | 40.2% | – |
| O=CN(Cc1ccc(OCc2ccc(F)cc2)cc1)C(C(=O)NC12CC3CC(CC(C3)C1)C2)c1c(C(=O)O)[nH]c2cc(Cl)ccc12 (stereo not given) | Not Active | – | – | – | – | Ki [1]: Not Active |
| CCOC(=O)c1[nH]c2cc(Cl)ccc2c1C(C(=O)NC(C)(C)C)N(C=O)Cc1ccc(OCc2ccc(Br)cc2)cc1 (stereo not given) | – | 42.7% | 37.4% | 0.8% | 19.1% | – |

| Structure (SMILES) | Ki (Protein Mdm4) | Activity (HCT-116 [2]) | Activity (HCT-116 [3]) | Activity (HCT-116 [4]) | Activity (HCT-116 [5]) | further results |
| --- | --- | --- | --- | --- | --- | --- |
| CC(=O)N(Cc1ccc(OCc2ccc(F)cc2)cc1)C(C(=O)NC1CCCCC1)c1c(C(=O)O)[nH]c2cc(Cl)ccc12 (stereo not given) | Not Active | – | – | – | – | – |
| CC(C)(C)NC(=O)C(c1c(C(=O)O)[nH]c2cc(Cl)ccc12)N(C=O)Cc1ccc(OCc2ccc(Br)cc2)cc1 (stereo not given) | – | 9.8% | 77.9% | 0.7% | 11.6% | – |
| CC(=O)N(Cc1ccc(OCc2ccccc2)cc1)C(C(=O)NC12CC3CC(CC(C3)C1)C2)c1c(C(=O)O)[nH]c2cc(Cl)ccc12 (stereo not given) | Not Active | – | – | – | – | – |
| CC(C)(C)NC(=O)C(c1c(C(=O)O)[nH]c2cc(Cl)ccc12)N(C=O)Cc1ccc(OCc2ccc(Cl)c(Cl)c2)cc1 (stereo not given) | – | 10% | 81.2% | 1.1% | 7.7% | – |
| CC(C)(C)NC(=O)C(c1c(C(=O)O)[nH]c2cc(Cl)ccc12)N(C=O)Cc1ccc(OCc2cc(F)cc(F)c2)cc1 (stereo not given) | – | 11.9% | 79.6% | 0.7% | 7.9% | – |
| CCOC(=O)c1[nH]c2cc(Cl)ccc2c1C(C(=O)NC(C)(C)C)N(C=O)Cc1ccc(OCc2ccccc2Br)cc1 (stereo not given) | – | 32.3% | 9.9% | 0.7% | 57.2% | – |
| O=CN(Cc1ccc(OCc2ccccc2Br)cc1)C(C(=O)NC1C2CC3CC(C2)CC1C3)c1c(C(=O)O)[nH]c2cc(Cl)ccc12 (stereo not given) | – | – | – | – | – | pEC50 (U2OS): 4.40; pEC50 (SAOS-2): 3.89 |
| CCOC(=O)c1[nH]c2cc(Cl)ccc2c1C(C(=O)NC(C)(C)C)N(C=O)Cc1ccc(OCc2cccc(Cl)c2)cc1 (stereo not given) | – | 21.6% | 34.5% | 1.2% | 42.7% | – |
| CC(C)(C)NC(=O)[C@H](c1c(C(=O)O)[nH]c2cc(Cl)ccc12)N(C=O)Cc1ccc(OCc2ccccc2Br)cc1 | – | – | – | – | – | pEC50 (U2OS): 3.89; pEC50 (SAOS-2): 3.70 |
| O=CN(CCc1ccccc1)C(C(=O)NC12CC3CC(CC(C3)C1)C2)c1c(C(=O)O)[nH]c2cc(Cl)ccc12 (stereo not given) | Not Active | – | – | – | – | – |
| CCOC(=O)c1[nH]c2cc(Cl)ccc2c1C(C(=O)NC(C)(C)C)N(C=O)Cc1ccc(OCc2ccsc2)cc1 (stereo not given) | Not Active | – | – | – | – | – |
| CCOC(=O)c1[nH]c2cc(Cl)ccc2c1C(C(=O)NC(C)(C)C)N(C=O)Cc1ccc(OCc2cccc(OC)c2)cc1 (stereo not given) | – | 8.3% | 84.8% | 0.8% | 6.1% | – |
| CC(C)(C)NC(=O)C(c1c(C(=O)O)[nH]c2cc(Cl)ccc12)N(C=O)Cc1ccc(OCc2cccnc2)cc1 (stereo not given) | Not Active | – | – | – | – | Ki [1]: Not Active |
| CCOC(=O)c1[nH]c2cc(Cl)ccc2c1C(C(=O)NC(C)(C)C)N(C=O)Cc1ccc(OCc2cc(F)cc(F)c2)cc1 (stereo not given) | – | 45.2% | 14.1% | 0.5% | 40.2% | – |
| CC(C)(C)NC(=O)C(c1c(C(=O)NCCN2CCOCC2)[nH]c2cc(Cl)ccc12)N(C=O)Cc1ccc(OCc2ccccc2Br)cc1 (stereo not given) | Not Active | – | – | – | – | – |
| CC(C)(C)NC(=O)C(c1c(C(=O)O)[nH]c2cc(Cl)ccc12)N(C=O)Cc1ccc(OCc2cccc(Cl)c2)cc1 (stereo not given) | – | 10.2% | 81% | 0.9% | 7.9% | – |
| CCOC(=O)c1[nH]c2cc(Cl)ccc2c1C(C(=O)NC(C)(C)C)N(C=O)Cc1ccc(NCc2ccc(Br)cc2)cc1 (stereo not given) | Not Active | 15.2% | 58.6% | 2.6% | 23.6% | – |
| CC(C)(C)NC(=O)C(c1c(C(=O)O)[nH]c2cc(Cl)ccc12)N(C=O)Cc1ccc(OCCc2ccccc2)cc1 (stereo not given) | Not Active | 8.1% | 80.7% | 0.5% | 10.7% | – |
| Cn1c(C(=O)O)c(C(C(=O)NC(C)(C)C)N(C=O)Cc2ccc(OCc3ccccc3Br)cc2)c2ccc(Cl)cc21 (stereo not given) | Not Active | – | – | – | – | Ki [1]: Not Active |
| CC(C)(C)NC(=O)C(c1c(C(=O)O)[nH]c2cc(Cl)ccc12)N(C=O)Cc1ccc(NCc2ccc(Br)cc2)cc1 (stereo not given) | – | 9.6% | 65.6% | 6% | 18.8% | – |
| CC(C)(C)NC(=O)C(c1c(C(=O)O)[nH]c2cc(Cl)ccc12)N(C=O)Cc1ccc(OCc2ccccc2Br)cc1 (racemic) | – | 15.4% | 69.1% | 1% | 14.6% | – |
| COc1ccc(C2=N[C@@H](c3ccc(Cl)cc3)[C@@H](c3ccc(Cl)cc3)N2C(=O)N2CCNC(=O)C2)c(OC(C)C)c1 [NUTLIN-3] | – | 26.9% | 53% | 1.2% | 18.9% | Ki [1]: Not Active |
